# Where two headings read alike, the source gives them in different places.
# Tests used:
# [1] = target: T1, UGM from Mycobacterium tuberculosis (UGMmyco) (Mycobacterium tuberculosis, UniProt P9WIQ1); assay: Fluorescence polarization binding / inhibition assay, UGMmyco
# Experimental: (§1) Serial dilutions of dialyzed UGM (maximum concentration was typically 30 μM) was incubated with 15 nM of fluorescent compounds 5a-5f, 6 or 11 in 50 mM sodium phosphate buffer, pH 7.0 at 25° C. Final volumes were 30 μL in 384 well black microtiter plates (Costar). Fluorescence polarization was analyzed using a Wallac EnVision plate reader. Data were fit to y=m1+((m2−m1)*x^m3)/(m4^m3+x^m3); m2=maximum FP signal, m1=minimum FP signal, m3=slope, m4=binding constant (KaleidaGraph, Synergy Software).
# The fluorescence polarization inhibition assay was performed as previously described (22). Reactions contained 580 nM UGMmyco or 500 nM UGMkleb and 15 nM of the fluorescent probe 5c in 50 mM sodium phosphate buffer, pH 7.0 at 25° C. Final volumes were 30 μL in 384 well black microtiter plates (Costar). Serial dilutions of UDP, 4d or 7 were added to the wells. Fluorescence polarization was analyzed using a Wallac EnVision plate reader. Data were fit to y=m1+((m2−m1)*x^m3)/(m4^m3+x^m3); m2=maximum FP signal, m1=minimum FP signal, m3=slope, m4=apparent binding constant (KaleidaGraph, Synergy Software). […]. FIGS. 13A and 13B are graphs illustrating determination of Kd for compound II for UGMmyco (FIG. 13A) and UGMkleb (FIG. 13B).
# [2] = target: T2, UGM from Klebsiella pneumoniae (UGMkleb) (Klebsiella pneumoniae, UniProt Q48485); assay: Fluorescence polarization binding / inhibition assay, UGMkleb
# Experimental: as §1
# The fluorescence polarization inhibition assay was performed as previously described (22). Reactions contained 580 nM UGMmyco or 500 nM UGMkleb and 15 nM of the fluorescent probe 5c in 50 mM sodium phosphate buffer, pH 7.0 at 25° C. Final volumes were 30 μL in 384 well black microtiter plates (Costar). Serial dilutions of UDP, 4d or 7 were added to the wells. Fluorescence polarization was analyzed using a Wallac EnVision plate reader. Data were fit to y=m1+((m2−m1)*x^m3)/(m4^m3+x^m3); m2=maximum FP signal, m1=minimum FP signal, m3=slope, m4=apparent binding constant (KaleidaGraph, Synergy Software). To determine Kd values, the apparent binding constant was then subjected to Kapp=Kd(1+(I)/KI), where I=concentration of the fluorescent probe and KI=binding affinity of the fluorescent probe to UGM. […] FIGS. 13A and 13B are graphs illustrating determination of Kd for compound II for UGMmyco (FIG. 13A) and UGMkleb (FIG. 13B).
# UGMmyco = UGMmyco (Mycobacterium tuberculosis, UniProt P9WIQ1); assay: HPLC assay of UGMmyco conversion of UDP-galactofuranose to UDP-galactopyranose (inhibition, kinetics); format: biochemical; details: initial rates at various UDP-Galf, 25 or 50 μM inhibitor, 11 nM UGMmyco, pH 7
# Experimental: UGMmyco inhibition was assessed using a previously described HPLC assay to measure the extent of enzymatic conversion of UDP-galactofuranose to UDP-galactopyranose. (Carlson, E. E.; May, J. F.; Kiessling, L. L. Chem. Biol. 2006, 13, 825-837.)
# The relative activity of UGMmyco in the presence of DMSO alone was compared to that in the presence of 50 μM of selected aminothiazoles. Enzymatic reaction conditions were as follows: 50 μM UDP-Galf, 4 μM UGMmyco and 20 mM DTT in 4% DMSO v/v. The mean activities of UGMmyco in the presence of the aminothiazoles are presented in order of decreasing binding affinities to highlight the relationship between enzyme inhibition and binding affinity.
# The inhibition curves look similar to the binding curves depicted in FIGS. 5A and 5B. […] In the graphs of these figures, conversion is the amount of UDP-Galp formed divided by the amount of total UDP-Gal (UDP-Galp+UDP-Galf). The data were fit to the equation as previously described. (Soltero-Higgin, M.; Carlson, E. E.; Phillips, J. H.; Kiessling, L. L., Identification of inhibitors for UDP-galactopyranose mutase. J. Am. Chem. Soc. 2004, 126, 10532-10533.)
# For inhibitor kinetic assays, the initial rate of UGMmyco was determined at various UDP-Galf concentrations in the presence of either DMSO alone (4% v/v), 25 μM inhibitor, or 50 μM inhibitor. […] Product formation was analyzed using a HPLC-based assay. […]
# [3] = target: T1, UGM from Mycobacterium tuberculosis (UGMmyco); details: previous work; read-out: affinity of the probe for UGMmyco; cited from earlier work
# [4] = target: T2, UGM from Klebsiella pneumoniae (UGMkleb); details: previous work; read-out: affinity of the probe for UGMkleb; cited from earlier work
# UGM = assay: Fluorescence polarization assay, UGM homolog not specified (UGMkleb or UGMmyco); format: binding; details: concentrations up to 34 μM of either UGMmyco or UGMkleb
# [5] = Table 2, 50 mM sodium phosphate pH 7.0, 25° C., read-out: Kd (UMGmyco)
# [6] = Table 2, 50 mM sodium phosphate pH 7.0, 25° C., read-out: Kd (UMGkleb)
# [7] = Kd (UMGkleb) [μM], Table 2, 50 mM sodium phosphate pH 7.0, 25° C.
# [8] = Kd (UMGmyco) [μM], Table 2, 50 mM sodium phosphate pH 7.0, 25° C.
# [9] = Table 1, UDP-fluorescein conjugates by linker length n, read-out: UGMmyco Kd
# T1 sequence (P9WIQ1 whole entry): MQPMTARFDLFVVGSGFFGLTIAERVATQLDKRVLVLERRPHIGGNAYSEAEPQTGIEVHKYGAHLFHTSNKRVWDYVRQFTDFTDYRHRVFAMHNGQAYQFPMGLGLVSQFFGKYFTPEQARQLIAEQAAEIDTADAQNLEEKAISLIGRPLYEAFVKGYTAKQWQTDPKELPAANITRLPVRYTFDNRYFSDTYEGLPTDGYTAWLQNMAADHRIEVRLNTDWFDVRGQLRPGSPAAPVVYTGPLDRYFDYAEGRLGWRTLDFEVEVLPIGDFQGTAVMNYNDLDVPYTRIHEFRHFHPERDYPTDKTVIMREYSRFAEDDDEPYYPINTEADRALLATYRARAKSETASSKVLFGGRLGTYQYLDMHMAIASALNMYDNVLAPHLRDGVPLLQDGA
# T2 sequence (Q48485 24-384): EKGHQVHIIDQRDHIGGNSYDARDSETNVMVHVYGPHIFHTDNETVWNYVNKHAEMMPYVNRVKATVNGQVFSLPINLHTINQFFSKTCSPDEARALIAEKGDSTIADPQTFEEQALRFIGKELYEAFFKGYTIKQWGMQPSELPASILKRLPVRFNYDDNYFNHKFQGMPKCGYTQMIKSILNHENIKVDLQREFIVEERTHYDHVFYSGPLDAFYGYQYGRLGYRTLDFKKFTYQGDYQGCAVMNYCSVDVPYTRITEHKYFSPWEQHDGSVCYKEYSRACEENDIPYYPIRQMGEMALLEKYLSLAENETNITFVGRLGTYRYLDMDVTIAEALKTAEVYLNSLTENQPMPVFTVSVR
# UGMmyco, sequence (P9WIQ1 whole entry): as the sequence (P9WIQ1 whole entry) above
Compound,"Kd [1, 5] [µM]","Kd [2, 6] [µM]","Kd [1, 8] [µM]","Kd [1, 9] [µM]",further results
"Uridine 5′-diphosphooctanolamine, ammonium salt [Compound 4d]",32 ± 3.4,37.7 ± 1.5,,,
"O=C(O)c1cc(NC(=S)NCCCCCCCCc2ccc(-c3csc(NC(Cc4ccc(Cl)cc4)C(=O)O)n3)cc2)ccc1-c1c2ccc(=O)cc-2oc2cc(O)ccc12 (stereo not drawn) [Compound 11, Aminothiazole-fluorescein conjugate]",0.295 ± 0.066,,,,"Kd ([1]; read-out: Kd / affinity for UGMmyco): 0.3 µM; Kd [2, 7]: 0.385 ± 0.035 µM; Kd ([2]; Kd / affinity for UGMkleb): 0.38 µM"
"O=c1ccn(C2OC(COP(=O)([O-])OP(=O)(O)OCCCCCCCCNC(=S)Nc3cccc4ccccc34)C(O)C2O)c(=O)[nH]1.[Na+] (stereo not drawn) [Compound 7, UDP-octanolamine-naphthyl conjugate]",,0.583 ± 0.036,0.61 ± 0.109,,
"O=C(O)c1cc(NC(=S)NCCOCCOCCOP(=O)(O)OP(=O)(O)OCC2OC(n3ccc(=O)[nH]c3=O)C(O)C2O)ccc1-c1c2ccc(=O)cc-2oc2cc(O)ccc12 (stereo not drawn) [Compound 5f, UDP-3,6-dioxa-octanolamine-fluorescein conjugate]",,0.767 ± 0.017,0.575 ± 0.016,,"fold lower affinity than compound 5d ([1]; UGMmyco, relative to 5d (eight methylene linker)): more than 10 fold; fold greater affinity than UDP ([1]; UGMmyco, relative to UDP): 20 fold"
UDP-decanolamine-fluorescein conjugate [Compound 5e],0.064 ± 0.004,0.07 ± 0.002,,0.064,
O=C(O)C(Cc1ccc(Cl)cc1)Nc1nc(-c2ccc(Cl)cc2Cl)cs1 (stereo not drawn),,,,,Ki (UGMmyco): 5300 nM
"O=C(O)c1cc(NC(=S)NCCOCCOCCOCCOP(=O)(O)OP(=O)(O)OCC2OC(n3ccc(=O)[nH]c3=O)C(O)C2O)ccc1-c1c2ccc(=O)cc-2oc2cc(O)ccc12 (stereo not drawn) [Compound 5g, UDP-3,6,9-trioxa-undecanolamine-fluorescein conjugate]",,1.2 ± 0.14,1.07 ± 0.1,,
UDP-hexanolamine-fluorescein conjugate [Compound 5c],0.166 ± 0.014,0.193 ± 0.011,,0.17,Kd [3]: 160 nM; Kd [4]: 100 nM
"O=C(O)c1cc(NC(=S)NCCOP(=O)(O)OP(=O)(O)OCC2OC(n3ccc(=O)[nH]c3=O)C(O)C2O)ccc1-c1c2ccc(=O)cc-2oc2cc(O)ccc12 (stereo not drawn) [Compound 5a, UDP-ethanolamine-fluorescein conjugate]",,> 30,> 30,,"Kd ([1]; UGMmyco Kd (μM), Table 1, UDP-fluorescein conjugates by linker length n): > 30 µM"
UDP-butanolamine-fluorescein conjugate [Compound 5b],2.51 ± 0.28,1.94 ± 0.15,,2.5,
UDP-octanolamine-fluorescein conjugate [Compound 5d],0.054 ± 0.006,0.045 ± 0.002,,0.054,
"O=C(O)c1cc(NC(=S)NCCCCCCCCO)ccc1-c1c2ccc(=O)cc-2oc2cc(O)ccc12 [Compound 6, Octanolamine-fluorescein conjugate]",> 30,,,,"Kd [2, 7]: > 30 µM; binding of fluorophore alone (UGM): no binding was observed"
"O=c1ccn([C@@H]2O[C@H](COP(=O)(O)OP(=O)(O)O)[C@@H](O)[C@H]2O)c(=O)[nH]1 [UDP, uridine 5′-diphosphate, reference compound]",,26 ± 1.7,15.1 ± 1.7,,Kd ([1]; Kd / affinity for UGMmyco): 15 µM; Kd ([2]; read-out: Kd / affinity for UGMkleb): 26 µM

# — patent publication US8273778B2, “Inhibitors of UDP-galactopyranose mutase thwart mycobacterial growth” (Wisconsin Alumni Research Foundation, priority 2008, dated 2012)
